Patent publication US10315994B2, “Photostable compounds, absorbing compounds and uses thereof” (Commonwealth Scientific and Industrial Research Organisation, priority 2015, dated 2019)
“Also recorded” adds a separate entry of the source.

Key:
[1] = Photostability of thin films exposed to xenon arc lamp; format: physicochemical; conditions: for % λmax (% of original absorbance remaining): absorbance at λmax, irradiated vs unirradiated; for % λmax (% of original absorbance remaining) / % abs total (% of original absorbance remaining): xenon arc lamp 1 hour, thin film; for % abs total (% of original absorbance remaining): sum of absorbance 290-400 nm; for Photostability, % remaining after irradiation: exposure to the lamp for 1 h
Procedure: 1 mL of a 3% solution of the test compound (30 mg of test compound in 1 mL solvent) was prepared in a solvent mix made up of 50% EtOH and 25% capric/caprylic triglyceride and 25% C12-C15 alkyl benzoate. 50 μL of this solution (containing 1.5 mg of test compound) was added carefully to the centre of a glass microscope slide and the volatile components left to evaporate in the dark for at least 3 hours to give a liquid film. […] The irradiation was performed in a fume cupboard where the air flow was sufficient to keep sample T<30° C. One hour's exposure represented a calculated radiation dose (using meter) of approximately 100 MED.
In order to calculate the photostability of the test compounds, the exposed slides were placed in a beaker and rinsed with 2×5 mL EtOH, 1×5 mL MeOH. The combined washings were then added to a 100 mL volumetric flask and made up to 100 mL total volume with methanol. The UV absorbance was then measured in a 10 mm cuvette. The percent stability is measured as the ratio of absorbance at λmax for the irradiated sample compared to the unirradiated sample. As a further measure, a comparison of the sum of the absorbance in the 290-400 nm range was calculated.
The thin films are a good surrogate for testing the stability of a candidate in a sunscreen formulation as they use cosmetic emollients as solvent and are formed at cosmetically relevant concentrations.

[2] = UV/visible absorbance characteristics (λmax, λcrit, ε, E 1%,1 cm); format: physicochemical
[3] = Table 1, in M-1 cm-1 (unit assumed)
[4] = Table 2, in M-1 cm-1 (unit assumed)
[5] = Table 5, in M-1 cm-1 (unit assumed)

Compound: CC1(C)CCN(C(C)(C)C)C=C1C(=O)c1c(F)cccc1F [Compound 184]
- Photostability (%) ([1]; Table 7, benzoyl derivatives): 90%

Compound: CC1(C)CCN(c2ccc(N3C=C(C(=O)C(F)(F)C(F)(F)C(F)(F)F)C(C)(C)CC3)cc2)C=C1C(=O)C(F)(F)C(F)(F)C(F)(F)F [Compound 158]
- E (1%, 1 cm) ([2]; Table 1): 750
- λcrit ([2]; Table 1): 388 nm
- λmax ([2]; Table 1): 369 nm
- ε [2, 3]: 51600
- E (1%, 1 cm) ([2]; Table 2): 750
- λcrit ([2]; Table 2): 388 nm
- λmax ([2]; Table 2): 369 nm
- ε [2, 4]: 51600

Compound: CC1(C)CCN(C(C)(C)C)C=C1C(=O)C(Br)(Br)Br [Compound 170]
- Fate under irradiation [1]: effectively destroyed
- Photostability (%) ([1]; Table 6): 13%
- E (1%, 1 cm) ([2]; Table 6): 321
- λcrit ([2]; Table 6): 361 nm
- λmax ([2]; Table 6): 330 nm
- ε ([2]; Table 6, in M-1 cm-1 (unit assumed)): 14203

Compound: CC(C)CN1C=C(C(=O)C(c2ccccc2)c2ccccc2)C(C)(C)CC1 [Compound 16]
- % λmax (% of original absorbance remaining) [1]: 35%
- % abs total (% of original absorbance remaining) [1]: 37%

Compound: CCC(=O)C1=CN(c2ccc(Oc3ccc(N4C=C(C(=O)CC)C(C)(C)CC4)cc3)cc2)CCC1(C)C [Compound 118]
- ε [2, 3]: 56063

Compound: CC1(C)CCN(C(C)(C)C)C=C1C(=O)c1c(F)c(F)c(F)c(F)c1F [Compound 185]
- λmax ([2]; Table 7, benzoyl derivatives): 315 nm

Compound: CC1(C)C=CN(c2ccccc2)C=C1C(=O)C(F)(F)F [Compound 105]
- E (1%, 1 cm) ([2]; Table 1): 263
- λcrit ([2]; Table 1): 391 nm
- λmax ([2]; Table 1): 384 nm
- ε [2, 3]: 7393

Compound: CC1(C)CCN(C(C)(C)C)C=C1C(=O)CF
- Photostability (%) ([1]; Table 5): 30%
- E (1%, 1 cm) ([2]; Table 5): 1655
- λcrit ([2]; Table 5): 326 nm
- λmax ([2]; Table 5): 310 nm
- ε [2, 5]: 37586

Compound: CCCCCCCC(=O)C1=CN(C(C)(C)C)CCC1(C)C [319, 2]
- % λmax (% of original absorbance remaining) [1]: 45%
- Photostability, % remaining after irradiation [1]: over 40%
- % abs total (% of original absorbance remaining) [1]: 47%

Compound: CC1(C)CCN(C(C)(C)C)C=C1C(=O)C(F)(F)C(F)(F)C(F)(F)C(=O)C1=CN(C(C)(C)C)CCC1(C)C [drawing 123]
- E (1%, 1 cm) ([2]; Table 5): 1177
- λcrit ([2]; Table 5): 337 nm
- λmax ([2]; Table 5): 317 nm
- ε [2, 5]: 63346

Compound: CC1(C)CCN(C(C)(C)C)C=C1C(=O)/C=C/c1ccc(/C=C/C(=O)C2=CN(C(C)(C)C)CCC2(C)C)cc1 [(2E,2′E)-3,3′-(1,4-phenylene)bis(1-(1-(tert-butyl)-4,4-dimethyl-1,4,5,6-tetrahydropyridin-3-yl)prop-2-en-1-one)]
- UV λmax ([2]; synthesis section): 386 nm
- ε ([2]; synthesis section): 36404 M⁻¹ cm⁻¹

Compound: CC1(C)CCN(c2ccc(Oc3ccc(N4C=C(C(=O)C(F)(F)F)C(C)(C)CC4)cc3)cc2)C=C1C(=O)C(F)(F)F [Compound 111]
- E (1%, 1 cm) ([2]; Table 1): 923
- λcrit ([2]; Table 1): 365 nm
- λmax ([2]; Table 1): 343 nm
- ε [2, 3]: 53548

Compound: CC(C)CN1C=C(C(=O)c2ccccc2)C(C)(C)CC1 [Compound 11]
- Photostability (%) ([1]; Table 7, benzoyl derivatives): 59%
- % λmax (% of original absorbance remaining) [1]: 59%
- Photostability, % remaining after irradiation [1]: 59%
- % abs total (% of original absorbance remaining) [1]: 63%

Compound: CCC(=O)C1=CN(CC(C)C)CCC1(C)C [Compound 1]
- % λmax (% of original absorbance remaining) [1]: 21%
- Photostability, % remaining after irradiation [1]: 21%
- % abs total (% of original absorbance remaining) [1]: 24%

Compound: CC1(C)CCN(C(C)(C)C)C=C1C(=O)CC(=O)c1ccccc1 [Compound 94]
- % λmax (% of original absorbance remaining) [1]: 11%
- Photostability, % remaining after irradiation [1]: less than 20%
- Colour change on exposure to irradiation ([1]; film): goes from bright yellow to colourless; also recorded: became perfectly colourless
- % abs total (% of original absorbance remaining) [1]: 21%

Compound: CCCCNc1ccc(C(=O)C2=CN(C(C)(C)C)CCC2(C)C)cc1 [Compound 102]
- E (1%, 1 cm) ([2]; Table 1): 628

Compound: Cc1ccc(N2C=C(C(=O)C(F)(F)F)C(C)(C)CC2)cc1N1C=C(C(=O)C(F)(F)F)C(C)(C)CC1
- E (1%, 1 cm) ([2]; Table 5): 1315
- λcrit ([2]; Table 5): 358 nm
- λmax ([2]; Table 5): 339 nm
- ε [2, 5]: 66020

Compound: Cc1cc(N2C=C(C(=O)C(F)(F)F)C(C)(C)CC2)ccc1N1C=C(C(=O)C(F)(F)F)C(C)(C)CC1
- E (1%, 1 cm) ([2]; Table 5): 1170
- λcrit ([2]; Table 5): 369 nm
- λmax ([2]; Table 5): 347 nm
- ε [2, 5]: 58853

Compound: CC(C)CN1C=C(C(=O)C(C)(C)C)C(C)(C)CC1 [Compound 145]
- % λmax (% of original absorbance remaining) [1]: 60%
- % abs total (% of original absorbance remaining) [1]: 60%

Compound: Cc1c(N2C=C(C(=O)C(F)(F)F)C(C)(C)CC2)cccc1N1C=C(C(=O)C(F)(F)F)C(C)(C)CC1
- E (1%, 1 cm) ([2]; Table 5): 1495
- λcrit ([2]; Table 5): 346 nm
- λmax ([2]; Table 5): 326 nm
- ε [2, 5]: 75074

Compound: CC(C)CN1C=C(C(=O)C(F)(F)F)C(C)(C)CC1 [Compound 146]
- % λmax (% of original absorbance remaining) [1]: 89%
- % abs total (% of original absorbance remaining) [1]: 88%

Compound: CC(C)(C)CC(C)(C)N1C=C(C(=O)/C=C/c2ccc(/C=C/C(=O)C3=CN(C(C)(C)CC(C)(C)C)CCC3(C)C)cc2)C(C)(C)CC1
- Photostability (%) ([1]; Table 5): <5%

Compound: CCC(=O)C1=CN(c2ccccc2)CCC1(C)C [Compound 23]
- % λmax (% of original absorbance remaining) [1]: 30%
- % abs total (% of original absorbance remaining) [1]: 31%

Compound: CC1(C)CCN(c2ccc(N3C=C(C(=O)C(F)(F)F)C(C)(C)CC3)cc2)C=C1C(=O)C(F)(F)F [Compound 116]
- E (1%, 1 cm) ([2]; Table 1): 1120
- λcrit ([2]; Table 1): 386 nm
- λmax ([2]; Table 1): 367 nm
- ε [2, 3]: 54658
- E (1%, 1 cm) ([2]; Table 2): 1120
- λcrit ([2]; Table 2): 387 nm
- λmax ([2]; Table 2): 367 nm
- ε [2, 4]: 54658

Compound: CC(C)(C)Oc1ccc(C(=O)C2=CN(C(C)(C)C)CCC2(C)C)cc1 [Compound 88]
- Photostability (%) ([1]; Table 7, benzoyl derivatives): 38%

Compound: CCCCCCC(=O)C1=CN(c2ccc(N3C=C(C(=O)CCCCCC)C(C)(C)CC3)cc2)CCC1(C)C [1,1′-(1,4-phenylenebis(4,4-dimethyl-1,4,5,6-tetrahydropyridine-1,3-diyl))bis(heptan-1-one)]
- UV λmax ([2]; synthesis section): 359 nm
- ε ([2]; synthesis section): 70222 M⁻¹ cm⁻¹

Compound: CN(C)c1ccc(C(=O)C2=CN(C(C)(C)C)CCC2(C)C)cc1 [Compound 86]
- Photostability (%) ([1]; Table 7, benzoyl derivatives): 30%
- Photostability, % remaining after irradiation [1]: 30%

Compound: Br.CCC(=O)C1=CN(CC(C)C)CCC1(C)C [Compound 44]
- % λmax (% of original absorbance remaining) [1]: 56%
- Photostability, % remaining after irradiation [1]: 56%
- % abs total (% of original absorbance remaining) [1]: 56%

Compound: CC1(C)CCN(c2ccc(N3C=C(C(=O)C(F)(F)F)C(C)(C)CC3)cc2)CC1 [Compound 117]
- E (1%, 1 cm) ([2]; Table 1): 657
- λcrit ([2]; Table 1): 382 nm
- λmax ([2]; Table 1): 349 nm
- ε [2, 3]: 25890

Compound: CC1(C)CCN(C(C)(C)C)C=C1C(=O)c1ccccc1 [Compound 179]
- Photostability, % remaining after irradiation [1]: 76%

Compound: CCCCC(CC)CN(c1ccc(C(=O)C2=CN(C(C)(C)C)CCC2(C)C)cc1)c1ccc(C(=O)C2=CN(C(C)(C)C)CCC2(C)C)cc1 (centres unmarked) [drawing 95, (((2-ethylhexyl)azanediyl)bis(4,1-phenylene))bis((1-(tert-butyl)-4,4-dimethyl-1,4,5,6-tetrahydropyridin-3-yl)methanone)]
- UV λmax ([2]; synthesis section): 316 nm
- ε ([2]; synthesis section): 41598 M⁻¹ cm⁻¹

Compound: CC1(C)CCN(C(C)(C)C)C=C1C(=O)c1ccc(Br)cc1 [Compound 76]
- Photostability (%) ([1]; Table 7, benzoyl derivatives): 85%

Compound: CC1(C)CCN(C(C)(C)C)C=C1C(=O)c1ccncc1 [Compound 58]
- Photostability (%) ([1]; Table 7, benzoyl derivatives): 78%

Compound: CC1(C)CCN(c2ccc(Cc3ccc(N4C=C(C(=O)C(F)(F)F)C(C)(C)CC4)cc3)cc2)C=C1C(=O)C(F)(F)F [Compound 108]
- E (1%, 1 cm) ([2]; Table 1): 1051
- λcrit ([2]; Table 1): 363 nm
- λmax ([2]; Table 1): 341 nm
- ε [2, 3]: 60770

Compound: CN(C(=O)C1=CN(C(C)(C)C)CCC1(C)C)c1ccccc1 [Compound 70]
- % λmax (% of original absorbance remaining) [1]: 9%
- % abs total (% of original absorbance remaining) [1]: 14%

Compound: Cc1ccc(NC(=O)C2=CN(C(C)(C)CC(C)(C)C)CCC2(C)C)cc1NC(=O)C1=CN(C(C)(C)CC(C)(C)C)CCC1(C)C [Compound 161]
- % λmax (% of original absorbance remaining) [1]: 55%
